Assay results taken from ChEMBL document CHEMBL1153482, “Design of selective Cathepsin inhibitors” (Bioorg Med Chem Lett, 2009).

Key:
[1] = biological target: Cathepsin S (Homo sapiens, UniProt P25774); assay: Inhibition of cathepsin S assessed as inhibition of fluorogenic substrate cleavage
[2] = biological target: Cathepsin B (Homo sapiens, UniProt P07858); assay: Inhibition of human liver cathepsin B assessed as inhibition of fluorogenic substrate cleavage
[3] = biological target: T1, Cathepsin K (Homo sapiens, UniProt P43235); assay: Inhibition of cathepsin K assessed as inhibition of fluorogenic substrate cleavage
T1 sequence (P43235 whole entry): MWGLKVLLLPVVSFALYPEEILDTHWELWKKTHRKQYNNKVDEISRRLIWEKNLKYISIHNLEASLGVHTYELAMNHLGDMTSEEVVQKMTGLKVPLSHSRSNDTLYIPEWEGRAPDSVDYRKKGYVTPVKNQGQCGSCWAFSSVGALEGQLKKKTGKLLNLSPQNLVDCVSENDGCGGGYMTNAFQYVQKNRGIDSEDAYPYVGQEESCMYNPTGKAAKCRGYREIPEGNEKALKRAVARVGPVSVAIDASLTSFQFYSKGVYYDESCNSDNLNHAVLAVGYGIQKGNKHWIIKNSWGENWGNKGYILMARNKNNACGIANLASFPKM

[4] = biological target: Procathepsin L (Homo sapiens, UniProt P07711); assay: Inhibition of cathepsin L assessed as inhibition of fluorogenic substrate cleavage
Sequence of Procathepsin L (P07711 whole entry): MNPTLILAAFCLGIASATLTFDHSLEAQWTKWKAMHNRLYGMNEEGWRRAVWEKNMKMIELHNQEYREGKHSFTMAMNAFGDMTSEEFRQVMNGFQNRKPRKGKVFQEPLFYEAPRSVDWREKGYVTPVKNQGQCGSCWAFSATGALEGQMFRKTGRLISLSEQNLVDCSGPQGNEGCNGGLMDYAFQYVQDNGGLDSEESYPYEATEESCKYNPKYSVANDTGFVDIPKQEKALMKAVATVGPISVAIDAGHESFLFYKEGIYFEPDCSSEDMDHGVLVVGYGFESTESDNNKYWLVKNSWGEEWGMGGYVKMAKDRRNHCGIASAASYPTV

[5] = biological target: T2, Cathepsin L2 (Homo sapiens, UniProt O60911); assay: Inhibition of cathepsin L2 assessed as inhibition of fluorogenic substrate cleavage
T2 sequence (O60911 whole entry): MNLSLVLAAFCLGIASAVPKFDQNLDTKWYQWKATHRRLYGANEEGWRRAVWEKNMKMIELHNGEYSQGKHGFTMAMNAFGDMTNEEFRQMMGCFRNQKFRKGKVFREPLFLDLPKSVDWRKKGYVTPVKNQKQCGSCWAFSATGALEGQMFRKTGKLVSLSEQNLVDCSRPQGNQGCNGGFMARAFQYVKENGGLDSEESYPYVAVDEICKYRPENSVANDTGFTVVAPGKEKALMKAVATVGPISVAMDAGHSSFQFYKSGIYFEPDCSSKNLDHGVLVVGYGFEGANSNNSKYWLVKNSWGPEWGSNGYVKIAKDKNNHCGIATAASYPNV

Sequence of Cathepsin S (P25774 whole entry): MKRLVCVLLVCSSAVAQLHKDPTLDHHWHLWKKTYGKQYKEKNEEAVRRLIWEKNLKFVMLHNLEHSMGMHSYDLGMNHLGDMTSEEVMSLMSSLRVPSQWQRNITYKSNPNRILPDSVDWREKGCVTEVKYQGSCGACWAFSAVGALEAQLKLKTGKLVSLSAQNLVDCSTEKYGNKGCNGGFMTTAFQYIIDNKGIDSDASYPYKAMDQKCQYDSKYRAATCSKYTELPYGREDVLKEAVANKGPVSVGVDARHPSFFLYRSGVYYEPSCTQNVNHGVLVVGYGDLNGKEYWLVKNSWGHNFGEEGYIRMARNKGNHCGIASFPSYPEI

| Structure (SMILES) | IC50 [1] [nM] | IC50 [2] [nM] | IC50 [3] [nM] | IC50 [4] [nM] | IC50 [5] [nM] |
| --- | --- | --- | --- | --- | --- |
| N#CCNC(=O)[C@H](Cc1cccc(Cl)c1)NC(=O)c1ccccc1 | 126 | 5010 | 3160 | 251 | 794 |
| N#CCNC(=O)[C@H](Cc1cccc(-c2ccccn2)c1)NC(=O)c1ccccc1 | 631 | 6310 | > 10000 | 3160 | > 10000 |
| Cn1nc(C(C)(C)C)cc1C(=O)N[C@@H](Cc1cccc(-c2nnc(CN)o2)c1)C(=O)NCC#N | 200 | 3980 | 1000 | 2 | 39.8 |
| N#CCNC(=O)[C@H](Cc1cccc(-c2ccnnc2)c1)NC(=O)c1ccccc1 | 794 | > 10000 | > 10000 | > 7940 | > 10000 |
| N#CCNC(=O)[C@H](Cc1cccc(-c2cncnc2)c1)NC(=O)c1ccccc1 | 316 | > 10000 | > 7940 | 3980 | > 7940 |
| Cc1nnc(-c2cccc(C[C@H](NC(=O)c3cc(C(C)(C)C)nn3C)C(=O)NCC#N)c2)o1 | 79.4 | > 10000 | 63.1 | 5.01 | 6.31 |
| N#CCNC(=O)[C@H](Cc1cccc(-c2nnco2)c1)NC(=O)c1ccccc1 | 20 | > 10000 | 1260 | 501 | 158 |
| N#CCNC(=O)[C@H](Cc1cccc(-c2cccnc2)c1)NC(=O)c1ccccc1 | 126 | 7940 | > 7940 | 2000 | 3980 |
| Cc1cccc(C[C@H](NC(=O)c2cc(C(C)(C)C)nn2C)C(=O)NCC#N)c1 | 794 | 3980 | 2510 |  | 398 |
| Cn1nc(C(C)(C)C)cc1C(=O)N[C@@H](Cc1cccc(-c2nnc(CCN)o2)c1)C(=O)NCC#N | 63.1 | 6310 | 158 | 1.26 | 100 |
| Cn1nc(C(C)(C)C)cc1C(=O)N[C@@H](Cc1cccc(-c2nnc(CO)o2)c1)C(=O)NCC#N | 63.1 | > 10000 | 100 | 6.31 | 7.94 |
| Cn1nc(C(C)(C)C)cc1C(=O)N[C@@H](Cc1cccc(-c2nncs2)c1)C(=O)NCC#N | 15.8 | > 10000 | 126 | 5.01 | 6.31 |
| Cn1nc(C(C)(C)C)cc1C(=O)N[C@@H](Cc1cccc(-c2nnco2)c1)C(=O)NCC#N | 63.1 | > 10000 | 126 | 15.8 | 20 |
| Cn1cc(-c2cccc(C[C@H](NC(=O)c3cc(C(C)(C)C)nn3C)C(=O)NCC#N)c2)cn1 | 316 | > 10000 | 6310 | 15.8 | 158 |
| N#CCNC(=O)[C@H](Cc1cccc(-c2cn[nH]c2)c1)NC(=O)c1ccccc1 | 79.4 | 7940 | > 10000 | 794 | 1580 |
| Cn1cc(-c2cccc(C[C@H](NC(=O)c3ccccc3)C(=O)NCC#N)c2)cn1 | 100 | 6310 | > 10000 | 501 | 1580 |
| COCc1nnc(-c2cccc(C[C@H](NC(=O)c3cc(C(C)(C)C)nn3C)C(=O)NCC#N)c2)o1 | 79.4 | > 10000 | 126 | 3.98 | 2 |
| N#CCNC(=O)[C@H](Cc1cccc(-c2ccn[nH]2)c1)NC(=O)c1ccccc1 | 316 | 5010 | > 10000 | 1580 | 3980 |
| N#CCNC(=O)[C@H](Cc1cccc(-c2ccncc2)c1)NC(=O)c1ccccc1 | 251 | > 10000 | > 10000 | 1580 | 3160 |
| Cn1nccc1-c1cccc(C[C@H](NC(=O)c2ccccc2)C(=O)NCC#N)c1 | 316 | 7940 | > 10000 | 3160 | 3160 |
| N#CCNC(=O)[C@H](Cc1cccc(-c2cccnn2)c1)NC(=O)c1ccccc1 | 7.94 | 6310 | > 6310 | 1260 | 63.1 |
| Cc1nnc(-c2cccc(C[C@H](NC(=O)c3cc(C(C)(C)C)nn3C)C(=O)NCC#N)c2)s1 | 316 | > 10000 | 3160 | 126 | 3.16 |
| Cn1nc(C(C)(C)C)cc1C(=O)N[C@@H](Cc1cccc(Cl)c1)C(=O)NCC#N | 1000 | 6310 | 3160 | 12.6 | 200 |
| N#CCNC(=O)[C@H](Cc1cccc(-c2nncs2)c1)NC(=O)c1ccccc1 | 2.51 | > 10000 | 631 | 200 | 25.1 |
